The values that follow come from PubChem BioAssay (NCI).

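Interpolation was linear, between the two tested concentrations surrounding the appropriate level; five concentrations were tested over 48 hours in 96-well plates. At the GI50, growth is halved. TGI marks complete inhibition of growth.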

Among the test systems are CCRF-CEM leukemia; DU-145 prostate; HOP-62 NSCLC; RPMI-8226 leukemia; SF-268 CNS; 786-0 renal; HCT-116 colon; SF-295 CNS; DMS 114 small cell lung; DMS 273 small cell lung; KM20L2 colon; LXFL 529 NSCLC; SNB-78 CNS; DLD-1 colon.
Holding throughout (experiment): NCI-60 cell line screen, 48 h

`CC[C@@]1(OC(=O)CN(C)C)C(=O)OCc2c1cc1n(c2=O)Cc2cc3c(N)cccc3nc2-1`: the GI50 in the assay on CCRF-CEM leukemia is under 0.01 µM; in the assay on DU-145 prostate it was 0.0115 µM; in the assay with HOP-62 NSCLC, 0.0119 µM; in the assay on RPMI-8226 leukemia, 0.0636 µM; in the assay with SF-268 CNS, under 0.01 µM. The TGI with CCRF-CEM leukemia stood at 0.025 µM; with DU-145 prostate it was 0.081 µM; in the assay with HOP-62 NSCLC, 0.432 µM; in the assay on RPMI-8226 leukemia, 0.541 µM; in the assay with SF-268 CNS, 0.11 µM.

On to `COc1ccc(C(=O)O[C@H]2CC[C@@]3(C)[C@@H]4CC[C@H]5[C@]6(O)C[C@H](O)[C@@]7(O)[C@@H](CN8C[C@@H](C)CC[C@H]8[C@@]7(C)O)[C@]6(O)C[C@@]53OC24O)cc1OC`, for which the TGI in the assay with 786-0 renal, in the assay with DU-145 prostate, in the assay with HCT-116 colon, in the assay with HOP-62 NSCLC, with RPMI-8226 leukemia and with SF-268 CNS was over 100 µM in each case. In the assay on SF-295 CNS, this compound yielded a TGI of over 100 µM.

As to `Nc1c(OCC(=O)O)ccc2cc(S(=O)(=O)O)ccc12`, the TGI in the assay on 786-0 renal, with CCRF-CEM leukemia, with DU-145 prostate, with HCT-116 colon, with HOP-62 NSCLC and in the assay with RPMI-8226 leukemia was over 100 µM each time. Further, the TGI in the assay with SF-268 CNS and with SF-295 CNS was over 100 µM each time.

On to `COc1ccc(NC(=S)NNC(=O)c2nsc3ccccc23)cc1`, for which the TGI was over 100 µM in the assay with DMS 114 small cell lung; 81.5 µM in the assay with DMS 273 small cell lung; over 100 µM with HCT-116 colon; over 100 µM with HOP-62 NSCLC; over 100 µM in the assay on KM20L2 colon; over 100 µM in the assay with LXFL 529 NSCLC. In addition, the TGI with RPMI-8226 leukemia, in the assay on SF-268 CNS and with SNB-78 CNS was over 100 µM each time.

Regarding `C[C@]12Cc3cnc(-c4ccccc4)nc3C[C@@H]1CC[C@@H]1[C@@H]2CC[C@@]2(C)[C@H]1CC[C@]2(C)O`, the TGI in the assay on 786-0 renal came to 27.5 µM; with CCRF-CEM leukemia it was 77.7 µM; with DU-145 prostate, 44.1 µM; with HCT-116 colon, 48.8 µM; with HOP-62 NSCLC, 41.6 µM; in the assay with RPMI-8226 leukemia, 55 µM. For the same compound, the TGI in the assay on SF-268 CNS was 33 µM; in the assay on SF-295 CNS it was 52.4 µM.

With `CCC1C(C#N)=C(O)NC(O)=C1C#N`, the TGI with DLD-1 colon, in the assay with DMS 114 small cell lung, with DMS 273 small cell lung, in the assay with HCT-116 colon, with HOP-62 NSCLC and in the assay with KM20L2 colon was over 100 µM each time. Moreover, the TGI in the assay on LXFL 529 NSCLC, in the assay with RPMI-8226 leukemia, with SF-268 CNS, with SF-295 CNS and with SNB-78 CNS was over 100 µM each time.

In the case of `NC1C=NNC1=O` (stereo unspecified), the TGI in the assay on CCRF-CEM leukemia, in the assay on DLD-1 colon, with DMS 114 small cell lung, with DMS 273 small cell lung, in the assay on KM20L2 colon and with LXFL 529 NSCLC was over 100 µM each time. For the same compound, the TGI in the assay with RPMI-8226 leukemia, with SF-268 CNS, with SF-295 CNS and in the assay with SNB-78 CNS was over 100 µM in each case.

With `O=C1CCCC/C1=C1/SC(=Nc2ccccc2)C(=Nc2ccccc2)N1c1ccccc1`, the TGI in the assay on CCRF-CEM leukemia, with DU-145 prostate, in the assay with HCT-116 colon, with HOP-62 NSCLC, in the assay with RPMI-8226 leukemia and in the assay on SF-295 CNS was over 100 µM in each case.

`COc1ccc(C(=O)NC2=C(Cl)C(=O)c3ccccc3C2=O)cc1`: the TGI in the assay with CCRF-CEM leukemia was over 100 µM; in the assay on DU-145 prostate, 15.2 µM; in the assay on HCT-116 colon it was 1.52 µM; with HOP-62 NSCLC, 60.8 µM; with SF-268 CNS, 35.6 µM; with SF-295 CNS, 13.8 µM.

With `Clc1cc2ccccc2c2ccccc12`, the TGI in the assay with 786-0 renal, in the assay on CCRF-CEM leukemia, with DU-145 prostate, in the assay with HCT-116 colon, in the assay with HOP-62 NSCLC and in the assay with RPMI-8226 leukemia was over 100 µM throughout. In addition, the TGI with SF-268 CNS and in the assay on SF-295 CNS was over 100 µM each time.

In the case of `O=C(O)C(O)(c1ccc(-c2ccccc2)cc1)c1ccc(-c2ccccc2)cc1`, the TGI in the assay on 786-0 renal is 80.4 µM; with DU-145 prostate, 40.6 µM; with HCT-116 colon, 62.2 µM; in the assay with HOP-62 NSCLC, 46.3 µM; in the assay with RPMI-8226 leukemia, over 100 µM; with SF-268 CNS, 57.8 µM. This compound returned a TGI in the assay on SF-295 CNS of 68.8 µM.

Consider `CCOC(=O)c1nc2ccccc2n(CC)c1=O`, for which the TGI in the assay on CCRF-CEM leukemia, in the assay with DU-145 prostate, with HCT-116 colon, with HOP-62 NSCLC, in the assay on RPMI-8226 leukemia and in the assay with SF-268 CNS was over 100 µM in each case. The compound also gave a TGI in the assay on SF-295 CNS of over 100 µM.

As to `Clc1ccc(C2CC(c3cccc(Nc4ccncc4)c3)=NN2c2ccc(Cl)cc2)cc1` (stereo unspecified), in the assay with DU-145 prostate, the GI50 was 1.88 µM and the TGI was found to be 3.49 µM. In the assay with SF-295 CNS, the GI50 is 1.58 µM and the TGI came to 2.96 µM.
